Measured values from patent US9192577B2, “Pharmaceutical compositions comprising a basic drug compound, a surfactant, and a physiologically tolerable water soluble acid” (Janssen Pharmaceutica NV, priority 2002, dated 2015).

Experiments:
HIV = assay: in vitro anti-HIV assay: inhibition of HIV-induced cytopathic effect in MT-4 cells (MTT); type: cell-based; details: for pSI: pSI = pCC50-pIC50 (selectivity index CC50/IC50)
Description: (§1) A rapid, sensitive and automated assay procedure was used for the in vitro evaluation of anti-HIV agents. […] Inhibition of the HIV-induced cytopathic effect was used as the end point. The viability of both HIV- and mock-infected cells was assessed spectrophotometrically via the in situ reduction of 3-(4,5-dimethylthiazol-2-yl)-2,5-diphenyltetrazolium bromide (MTT). The 50% cytotoxic concentration (CC50 in M) was defined as the concentration of compound that reduced the absorbance of the mock-infected control sample by 50%. The percent protection achieved by the compound in HIV-infected cells was calculated by the following formula:
(§2) [formula] whereby (ODT)HIV is the optical density measured with a given concentration of the test compound in HIV-infected cells; (ODC)HIV is the optical density measured for the control untreated HIV-infected cells; (ODC)MOCK is the optical density measured for the control untreated mock-infected cells; all optical density values were determined at 540 nm. The dose achieving 50% protection according to the above formula was defined as the 50% inhibitory concentration (IC50 in M). The ratio of CC50 to IC50 was defined as the selectivity index (SI).

[1] = cytotoxicity (CC50) in mock-infected MT-4 cells (MTT); type: cell-based; details: human, mock-infected MT-4 cells, −log CC50, MTT
Description: as §1, §2

In the case of Cc1cc(/C=C\Cl)cc(C)c1Nc1ccnc(Nc2ccc(C#N)cc2)n1, the melting point is reported as 250 °C.
Cc1cc(C=C(Br)Br)cc(C)c1Nc1ccnc(Nc2ccc(C#N)cc2)n1 gave a melting point of 223 °C.
Work on CCCCN(C)C(=O)/C=C/c1cc(C)c(Oc2ccnc(Nc3ccc(C#N)cc3)n2)c(C)c1 yielded a melting point of 212 °C.
Work on Cc1ccc(N(C)C)c(C)c1Nc1ccnc(Nc2ccc(C#N)cc2)n1 yielded a melting point of 132 °C.
With Cc1cc(/C=C/c2cccnc2)cc(C)c1Nc1ccnc(Nc2ccc(C#N)cc2)n1 the melting point was 120 °C.
Cc1cc(C(=O)CC#N)cc(C)c1Nc1ccnc(Nc2ccc(C#N)cc2)n1 gave a melting point of 150 °C.
In the case of Cc1cc(/C=C(\C#N)c2cccs2)cc(C)c1Nc1ccnc(Nc2ccc(C#N)cc2)n1 [Compound 49], the pSI (HIV) is reported as −3.2 and the CC50 [1] is reported as 15.8 µM.
Molecule Cc1cc(Cn2ccnc2)cc(C)c1Nc1ccnc(Nc2ccc(C#N)cc2)n1 [Compound 70] has a pSI (HIV) of −3.3 and a CC50 [1] of 15.8 µM.
Work on Cc1cc(CN2CCSC2)cc(C)c1Nc1ccnc(Nc2ccc(C#N)cc2)n1 [Compound 78] yielded a pSI (HIV) of −3.5 and a CC50 [1] of 12.6 µM.
For CCN(Cc1ccncc1)Cc1cc(C)c(Nc2ccnc(Nc3ccc(C#N)cc3)n2)c(C)c1 [Compound 79], the pSI (HIV) was −2.7 and the CC50 [1] was 5.01 µM.
Work on CCOCc1ccc(Oc2ccnc(Nc3ccc(C#N)cc3)n2)c(C)c1 [Compound 105] yielded a pSI (HIV) of less than −3.2, a melting point of 140 °C and a CC50 [1] greater than 100 µM.
Molecule Cc1cc(/C=C(/C#N)C(=O)C(C)(C)C)cc(C)c1Nc1ccnc(Nc2ccc(C#N)cc2)n1 [Compound 106] has a pSI (HIV) of −2.5, a melting point of 193 °C and a CC50 [1] of 6.31 µM.
With Cc1cc(/C=C(/F)C#N)cc(C)c1Nc1ccnc(Nc2ccc(C#N)cc2)n1 [Compound 110] the IC50 (HIV; Human immunodeficiency virus 1, MT4, −log IC50, 50% protection against HIV-induced cytopathic effect in MT-4 cells, MTT) was 2.51 nM, the pSI (HIV) was −4.3 and the melting point was 254 °C.
In the case of Cc1cc(/C=C/C(=O)N(C)C)cc(C)c1Nc1ccnc(Nc2ccc(C#N)cc2)n1 [Compound 112], the pSI (HIV) is reported as −4.2, the melting point is reported as greater than 264 °C and the CC50 [1] is reported as 12.6 µM.
Molecule Cc1cc(/C=C/C(=O)N(C)CCC#N)cc(C)c1Nc1ccnc(Nc2ccc(C#N)cc2)n1 [Compound 114] has a pSI (HIV) of −3.5, a melting point of 168 °C and a CC50 [1] of 7.94 µM.
In the case of Cc1cc(-n2cccc2)cc(C)c1Oc1ccnc(Nc2ccc(C#N)cc2)n1 [Compound 118], the pSI (HIV) is reported as less than −4.1 and the CC50 [1] is reported as 79.4 µM.
In the case of Cc1cc(/C(Cl)=C\C#N)cc(C)c1Nc1ccnc(Nc2ccc(C#N)cc2)n1 [Compound 124], the pSI (HIV) is reported as −3.8 and the CC50 [1] is reported as 20 µM.
Cc1cc(-c2ccc(C#N)o2)cc(C)c1Nc1ccnc(Nc2ccc(C#N)cc2)n1 [Compound 126] gave a pSI (HIV) of −3.5, a melting point greater than 260 °C and a CC50 [1] of 12.6 µM.
Cc1cc(/C=C/c2cccnc2)cc(C)c1Nc1ccnc(Nc2ccc(C#N)cc2)n1 [Compound 145] showed a pSI (HIV) of −3.4 and a CC50 [1] of 5.01 µM.
Cc1cc(/C=C/C(=O)N2CCN(C)CC2)cc(C)c1Nc1ccnc(Nc2ccc(C#N)cc2)n1 [Compound 155] gave a pSI (HIV) of −2.5 and a CC50 [1] of 0.501 µM.
With Cc1cc(/C=C/C(=O)N2CCOCC2)cc(C)c1Nc1ccnc(Nc2ccc(C#N)cc2)n1 [Compound 156] the pSI (HIV) was −2.6 and the CC50 [1] was 7.94 µM.
With Cc1cc(/C=C/C(=O)N2CC=CC2)cc(C)c1Oc1ccnc(Nc2ccc(C#N)cc2)n1 [Compound 209] the pSI (HIV) was −3.7 and the CC50 [1] was 12.6 µM.
Work on Cc1cc(/C=C/C(=O)N(C)C2CCN(C)CC2)cc(C)c1Oc1ccnc(Nc2ccc(C#N)cc2)n1 [Compound 210] yielded a pSI (HIV) of −3.5 and a CC50 [1] of 15.8 µM.
Work on Cc1cc(/C=C/C(=O)N2CCOCC2)cc(C)c1Oc1ccnc(Nc2ccc(C#N)cc2)n1 [Compound 216] yielded a pSI (HIV) of −3.6 and a CC50 [1] of 10 µM.
